These results are taken from paper PMC8910920 (International Journal of Molecular Sciences, 2022).

For one data set, the target named is T1, hTRPV1 (Homo sapiens, UniProt Q8NER1).
T1 construct: host or cells: CHO
Kind of data set: hTRPV1 agonist assay (Ca2+ fluorimetry, CHO cells). Particulars: 10 μM. The class given is cell-based. Here is the method: These studies were subcontracted to Eurofins-CEREP or Eurofins-PANLABS. Briefly, agonists and antagonist assays were performed in cell cultures overexpressing the corresponding channel (CHO: TRPV1 and TRPA1; HEK293: TRPV3 and ASIC3). In vitro pharmacology, cellular channel functional assays: the compound was prepared in assay buffer to the final concentration, 10 μM. The compound wells, reference agonist and background vehicle controls were prepared in DMSO at 0.3%. The reference agonist for each Ion Channel assayed was prepared in a similar manner to serve as the assay control. […] The agonist assay was conducted on fluorimeter instruments where the test compound, vehicle controls, and reference agonist were added to the assay plate after a fluorescence baseline was established. […] For the antagonist assay, the compound was pre-incubated for five minutes at room temperature, and then challenged with the EC80 concentration of the reference agonist after establishment of a fluorescence baseline. […] Binding assay results are expressed as a percent of control specific binding. […] Aqueous solubility (μM) was determined by comparing the peak area of the principal peak in a calibration standard (200 μM) containing organic solvent (methanol/water, 60/40, v/v) with the peak area of the corresponding peak in a buffer sample. […] The amount of compound in organic phase was calculated by subtraction. […]

A further data set has as its target T2, hCGRPR (Homo sapiens, UniProt O60894+Q16602).
T2 construct: host or cells: CHO
The experiment in a line: Radioligand binding assay, CHO cells, hCGRPR. Particulars: radioligand [125]hGCRPα. Here is the method: To define whether β–lactam derivative RGM8-51 could bind to CGRPR, CB2 and M3 receptors, in vitro binding assays were performed, using CHO cell lines transfected with these receptors. The degree of binding was determined by using specific radioligands for each receptor (Table 2, footnote).
These studies were subcontracted to Eurofins-CEREP or Eurofins-PANLABS. Briefly, agonists and antagonist assays were performed in cell cultures overexpressing the corresponding channel (CHO: TRPV1 and TRPA1; HEK293: TRPV3 and ASIC3). In vitro pharmacology, cellular channel functional assays: the compound was prepared in assay buffer to the final concentration, 10 μM. […] The agonist assay was conducted on fluorimeter instruments where the test compound, vehicle controls, and reference agonist were added to the assay plate after a fluorescence baseline was established. […] For the antagonist assay, the compound was pre-incubated for five minutes at room temperature, and then challenged with the EC80 concentration of the reference agonist after establishment of a fluorescence baseline. […] Binding assay results are expressed as a percent of control specific binding. […] Aqueous solubility (μM) was determined by comparing the peak area of the principal peak in a calibration standard (200 μM) containing organic solvent (methanol/water, 60/40, v/v) with the peak area of the corresponding peak in a buffer sample. […]

Data set [1] is described as follows: In vitro metabolism in human liver microsomes. The class given is in vitro ADME. In general terms: Microsomes from liver hold many membrane-bound enzymes, among them those of drug oxidation.

As a reminder, the inhibition is the drop in the measured response relative to a control, in per cent. By microsomal CLint is commonly meant the capacity of the preparation to metabolise the compound, expressed as a volume cleared per time. Lower therefore signals slow turnover.

T2 sequence (Q16602 23-461): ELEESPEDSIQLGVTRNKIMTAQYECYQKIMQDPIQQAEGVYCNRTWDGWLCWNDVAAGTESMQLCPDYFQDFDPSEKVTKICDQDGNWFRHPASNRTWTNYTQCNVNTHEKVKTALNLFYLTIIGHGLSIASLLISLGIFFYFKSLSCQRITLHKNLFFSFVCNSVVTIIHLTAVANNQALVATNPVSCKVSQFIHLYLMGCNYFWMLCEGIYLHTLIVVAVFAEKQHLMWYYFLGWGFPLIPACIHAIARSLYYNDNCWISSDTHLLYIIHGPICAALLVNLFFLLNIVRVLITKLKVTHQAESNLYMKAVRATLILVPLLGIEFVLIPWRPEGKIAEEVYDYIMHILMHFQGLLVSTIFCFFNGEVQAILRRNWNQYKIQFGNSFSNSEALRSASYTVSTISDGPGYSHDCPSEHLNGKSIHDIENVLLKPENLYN
T2 sequence (O60894 27-148 partner): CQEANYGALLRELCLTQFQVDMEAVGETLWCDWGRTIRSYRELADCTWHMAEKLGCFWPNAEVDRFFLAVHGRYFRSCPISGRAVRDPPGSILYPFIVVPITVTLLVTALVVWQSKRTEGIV
T1 sequence (Q8NER1 whole entry): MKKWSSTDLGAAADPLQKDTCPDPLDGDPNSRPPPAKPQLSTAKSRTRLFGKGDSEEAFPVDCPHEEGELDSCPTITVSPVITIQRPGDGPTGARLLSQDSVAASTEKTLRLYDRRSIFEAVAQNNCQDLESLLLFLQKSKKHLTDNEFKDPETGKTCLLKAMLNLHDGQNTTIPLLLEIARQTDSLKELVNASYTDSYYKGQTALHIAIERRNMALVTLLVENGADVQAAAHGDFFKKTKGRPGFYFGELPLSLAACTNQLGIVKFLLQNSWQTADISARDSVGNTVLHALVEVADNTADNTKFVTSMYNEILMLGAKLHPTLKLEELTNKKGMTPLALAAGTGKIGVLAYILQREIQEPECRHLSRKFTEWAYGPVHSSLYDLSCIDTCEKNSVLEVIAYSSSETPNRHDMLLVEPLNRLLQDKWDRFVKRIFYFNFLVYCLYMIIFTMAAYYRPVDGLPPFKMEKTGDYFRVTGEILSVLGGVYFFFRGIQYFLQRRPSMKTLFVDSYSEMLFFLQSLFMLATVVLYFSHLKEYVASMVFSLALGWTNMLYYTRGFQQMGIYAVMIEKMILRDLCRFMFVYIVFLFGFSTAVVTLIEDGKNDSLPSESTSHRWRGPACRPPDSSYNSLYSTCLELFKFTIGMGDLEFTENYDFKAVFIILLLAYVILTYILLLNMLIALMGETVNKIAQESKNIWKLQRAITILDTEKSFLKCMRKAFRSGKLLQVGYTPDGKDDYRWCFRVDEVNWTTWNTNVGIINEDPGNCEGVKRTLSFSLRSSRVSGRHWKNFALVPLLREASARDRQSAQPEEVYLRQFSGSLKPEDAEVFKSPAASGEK

`C[C@@H]1C(=O)N(C[C@H](Cc2ccccc2)N(Cc2ccccc2)Cc2ccccc2)[C@]1(Cc1ccccc1)C(=O)OC(C)(C)C` [RGM8-51, 4(S)-Benzyl-3S-methyl-4-(tert-butoxy)carbonyl-1-[(2′S-dibenzylamino-3′-phenyl)prop-1′-yl]-2-oxoazetidine]: on hTRPV1, the “hTRPV1 ago. (%)” value stood at 31.3 ± 3.6%. In addition, the “Binding hCGRPR (%), inhibition of specific binding” value at hCGRPR (10 μM) is “did not show significant affinity”. For the same compound, the inhibition at 10 µM at hCGRPR (read-out: Binding hCGRPR (%), inhibition of specific binding) was -1 ± 4.3%. Also, in data set [1], the “Metabolism Clint” value came to 614 µL/min/mg and the “Metabolism t1/2” value stood at 11 min. This compound returned an intrinsic metabolic clearance (microsomal CLint) in data set [1] (human, liver microsomes) of 614 µL/min/mg. Further, the half-life in data set [1] (human, liver microsomes, read-out: Metabolism t1/2) was 11.3 min.
